Data published in patent US20020177621A1, “Antifungal fragrance composition” (priority 2000, published 2002).
Where “and” joins values, the source holds several entries; their conditions need not be identical. Identical values can stand only once. Entries after “also recorded” stand apart in the source; their conditions may differ.

How the values were obtained:
Assay type in all cases: cell-based
[1] = system: Aspergillus niger IFO 9455 (An-1); assay: Fragrant vapor antifungal activity (impregnated paper disc on cover of inverted agar plate); conditions: 72 hours at 27° C.; for IZ: Diameter of growth inhibition zone: 20 μl fragrance (or 40 μl of 50% ethanol solution) on disc, >85 = growth inhibited over entire plate; for SI: Diameter of spore formation inhibition zone / Growth: Growth status outside the inhibition zone: 20 μl fragrance on disc; for Growth: Growth status outside the inhibition zone: compared with control
Method: (§1) Physiological saline containing 0.05% Tween-80 was added to a slant on which the test organism grew well, and a spore suspension was produced at 1×10^6 CFU (Colony Forming Units)/ml in accordance with ordinary methods. Potato dextrose agar (PDA: Nissui Pharmaceutical) was used for the medium. To begin with, 10 ml of sterile PDA was pipetted into a Petri dish and after it solidified, another 6 ml of PDA containing 1% of the above described spore suspension was overlaid and solidified to prepare the test agar plate. For the fragrance sample, if the sample is in the form of liquid at ordinary temperatures, 20 μl of liquid was directly impregnated into a paper disc (Advantech, diameter: 8 mm, thick material), while a 50% by weight ethanol solution was prepared for crystals or powder, and 40 μl of that solution was then impregnated into the paper disc.
(§2) The test agar plate was placed inversely, and the paper disc impregnated with the fragrance sample was placed in the center of the cover of the agar plate, followed by incubating for 72 hours at 27° C. Evaluation was made based on the diameter (mm) of the mold growth inhibition zone. When mold growth was inhibited over the entire surface of the agar plate, the diameter of the growth inhibition zone was reported as >85 mm. At locations where mold grew outside the inhibition zone, the diameter of the spore formation inhibition zone and the degree of growth were recorded by comparing with a control. The molds used in the test are shown in Table 1, wherein these molds consist of mold species that are isolated at high frequencies from rooms and bath rooms.
(§3) The amount of blended fragrance added to the paper discs was 20 μl each, and only the diameter of the inhibition zone (mm) is indicated for the results.

[2] = system: Aureobasidium pullulans IFO 6353 (Ap-1); assay: as above; conditions: 72 hours at 27° C.; for IZ: Diameter of growth inhibition zone: 20 μl fragrance (or 40 μl of 50% ethanol solution) on disc, >85 = growth inhibited over entire plate; for Growth: Growth status outside the inhibition zone: compared with control
Method: as §1, §2, §3

[3] = system: Cladosporium cladosporioides IFO 6348 (Cc-1); assay: as above; conditions: 72 hours at 27° C.; for IZ: Diameter of growth inhibition zone: 20 μl fragrance (or 40 μl of 50% ethanol solution) on disc, >85 = growth inhibited over entire plate; for Growth: Growth status outside the inhibition zone: 20 μl fragrance on disc, compared with control
Method: as §1, §2, §3

An-1 (Aspergillus niger) = assay: Confirmation of synergistic action of two fragrances (vapor, paper disc); conditions: for Synergistic effect: second fragrance that shows synergistic action with the fragrance component / Antagonistic effect: second fragrance that shows antagonistic action with the fragrance component / Additive effect: second fragrance that shows additive action with the fragrance component: value = combination partner; for Synergistic effect: second fragrance that shows synergistic action with the fragrance component: combined IZ 20 mm or more larger than sum of single IZ; for Antagonistic effect: second fragrance that shows antagonistic action with the fragrance component: combined IZ 20 mm or more smaller than sum of single IZ; for Additive effect: second fragrance that shows additive action with the fragrance component: combined IZ intermediate
Method: An agar plate prepared according to the method of Example 1 was used while using An-1 (Aspergillus niger) for the test fungi. […] 10 μl of the ethanol containing the Table 3 prescribed amount of the fragrance was impregnated into a paper disc. The test agar plate was placed inversely, and the paper disc impregnated with each fragrance alone and a paper disc simultaneously impregnated with two types of fragrances were placed in the center of the cover, followed by incubating for 72 hours at 27° C. and measuring the diameters of the resulting growth inhibition zones.
The results obtained as in Example 2 with other combinations are shown in Tables 4 through 7 as combination examples of respective synergistic, additive and antagonistic actions for each fragrant chemical product (a). […] It should be noted that in order to make the table smaller, combinations that have already been listed once are not listed in other columns of the tables.

Structure (SMILES)	IZ: Diameter of growth inhibition zone [1]	SI: Diameter of spore formation inhibition zone [1]	Growth: Growth status outside the inhibition zone [1]	IZ: Diameter of growth inhibition zone [2]	Growth: Growth status outside the inhibition zone ([2]; 20 μl fragrance on disc)	IZ: Diameter of growth inhibition zone [3]	Growth: Growth status outside the inhibition zone [3]	Synergistic effect: second fragrance that shows synergistic action with the fragrance component (An-1 (Aspergillus niger))	Antagonistic effect: second fragrance that shows antagonistic action with the fragrance component (An-1 (Aspergillus niger))	Additive effect: second fragrance that shows additive action with the fragrance component (An-1 (Aspergillus niger))	SI: Diameter of spore formation inhibition zone ([2]; 20 μl fragrance on disc)	IZ (diameter of growth inhibition zone) (An-1 (Aspergillus niger); 72 hours at 27° C., sample amount on disc: citral 2 μl, benzaldehyde 10 μl, dimethyl tetrahydrobenzaldehyde 20 μl, geraniol 10 μl, octyl aldehyde 20 μl, 9-decen-1-ol 0.5 μl, trans-2-undecenal 3 μl, phenylacetaldehyde 5 μl, A + B = both amounts on one disc)	Growth (growth status outside the inhibition zone) (An-1 (Aspergillus niger); 72 hours at 27° C., sample amounts as in Table 3 (citral 2 μl, benzaldehyde 10 μl, dimethyl tetrahydrobenzaldehyde 20 μl, geraniol 10 μl, octyl aldehyde 20 μl, 9-decen-1-ol 0.5 μl, trans-2-undecenal 3 μl, phenylacetaldehyde 5 μl; A + B = both))	SI (diameter of spore formation inhibition zone) (An-1 (Aspergillus niger); 72 hours at 27° C., sample amounts as in Table 3 (citral 2 μl, benzaldehyde 10 μl, dimethyl tetrahydrobenzaldehyde 20 μl, geraniol 10 μl, octyl aldehyde 20 μl, trans-2-undecenal 3 μl, phenylacetaldehyde 5 μl; A + B = both))
CC(C)=CCCC(C)CCO (stereo not shown) [Citronellol]	35 mm	55 mm	good	35 mm	weak	35 mm	weak	Citral DMA,; also recorded: Citral DEA,	Thymol and 9-Decen-1-ol	1-Nonanal, and 1-Decanol, and Anisaldehyde	–	–	–	–
CC(C)=CCC/C(C)=C/CO [Geraniol]	45 mm	65 mm	good	30 mm	good	70 mm	weak	1-Nonanal	Citronellol,; also recorded: Eugenol	Thymol,	45 mm	30 mm	weak	45 mm
O=Cc1ccco1 [Furfural]	>85 mm	–	none	>85 mm	none	>85 mm	none	Citronellal; also recorded: hexenal, Octyl aldehyde,; also recorded: Trans-2-undecenal,; also recorded: Cumin aldehyde,; also recorded: Geraniol; also recorded: Citronellol; also recorded: Thymol	–	–	–	–	–	–
